System: rodent lifetime carcinogenesis bioassay, tumor incidence TD50
Assay: carcinogenic potency in animals, long-term in vivo studies, CPDB compilation (AID 1745844)
Settings: mouse, strain B6C3F1, males, inhaled

SMILES: C=CC=C
- TD50 (site: Harderian gland, lesion: adenocarcinoma + adenocarcinoma, bilateral, dosed 52 weeks, study length 104 weeks): 88.9 mg/kg/day
- TD50 (site: Harderian gland, lesion: adenocarcinoma + adenoma + adenocarcinoma, bilateral + adenoma, bilateral, dosed 13 weeks, study length 104 weeks): 11.7 mg/kg/day
- TD50 (site: Harderian gland, lesion: adenocarcinoma + adenoma + adenocarcinoma, bilateral + adenoma, bilateral, dosed 26 weeks, study length 104 weeks): 22.7 mg/kg/day
- TD50 (site: Harderian gland, lesion: adenocarcinoma + adenoma + adenocarcinoma, bilateral + adenoma, bilateral, dosed 52 weeks, study length 104 weeks): 13.1 mg/kg/day
- TD50 (site: Harderian gland, lesion: adenocarcinoma + adenoma + adenoma, bilateral, dosed 40 weeks, study length 104 weeks): 17.5 mg/kg/day
- TD50 (site: Harderian gland, lesion: adenocarcinoma + adenoma + adenoma, bilateral, dosed 82 weeks, study length 104 weeks): 26.1 mg/kg/day
- TD50 (site: Harderian gland, lesion: adenocarcinoma, dosed 40 weeks, study length 104 weeks): 531 mg/kg/day
- TD50 (site: Harderian gland, lesion: adenocarcinoma, dosed 82 weeks, study length 104 weeks): 221 mg/kg/day
- TD50 (site: Harderian gland, lesion: adenoma + adenoma, bilateral, dosed 13 weeks, study length 104 weeks): 14.9 mg/kg/day
- TD50 (site: Harderian gland, lesion: adenoma + adenoma, bilateral, dosed 26 weeks, study length 104 weeks): 22.7 mg/kg/day
- TD50 (site: Harderian gland, lesion: adenoma + adenoma, bilateral, dosed 40 weeks, study length 104 weeks): 18 mg/kg/day
- TD50 (site: Harderian gland, lesion: adenoma + adenoma, bilateral, dosed 52 weeks, study length 104 weeks): 14.9 mg/kg/day
- TD50 (site: Harderian gland, lesion: adenoma + adenoma, bilateral, dosed 82 weeks, study length 104 weeks): 27.6 mg/kg/day
- TD50 (site: Zymbal's gland, lesion: adenoma + carcinoma, dosed 13 weeks, study length 104 weeks): 223 mg/kg/day
- TD50 (site: Zymbal's gland, lesion: adenoma + carcinoma, dosed 26 weeks, study length 104 weeks): 135 mg/kg/day
- TD50 (site: Zymbal's gland, lesion: adenoma + carcinoma, dosed 40 weeks, study length 104 weeks): 647 mg/kg/day
- TD50 (site: Zymbal's gland, lesion: carcinoma, dosed 13 weeks, study length 104 weeks): 336 mg/kg/day
- TD50 (site: Zymbal's gland, lesion: carcinoma, dosed 26 weeks, study length 104 weeks): 135 mg/kg/day
- TD50 (site: Zymbal's gland, lesion: carcinoma, dosed 40 weeks, study length 104 weeks): 625 mg/kg/day
- TD50 (site: all sites + brain + forestomach + Harderian gland + heart + kidney + liver + lung + preputial gland, lesion: histiocytic sarcoma + malignant lymphoma, mixed type + malignant lymphoma, lymphocytic type + malignant lymphoma + olfactory lob, dosed 13 weeks, study length 104 weeks): 7 mg/kg/day
- TD50 (site: all sites + brain + forestomach + Harderian gland + heart + kidney + liver + lung + preputial gland, lesion: histiocytic sarcoma + malignant lymphoma, mixed type + malignant lymphoma, lymphocytic type + malignant lymphoma + olfactory lob, dosed 26 weeks, study length 104 weeks): 12.6 mg/kg/day
- TD50 (site: all sites + forestomach + Harderian gland + heart + kidney + liver + lung + preputial gland, lesion: histiocytic sarcoma + malignant lymphoma, histiocytic type + malignant lymphoma, mixed type + malignant lymphoma, lymphocytic, dosed 82 weeks, study length 104 weeks): 10.7 mg/kg/day
- TD50 (site: all sites + forestomach + Harderian gland + heart + kidney + liver + lung + preputial gland, lesion: histiocytic sarcoma + malignant lymphoma, mixed type + malignant lymphoma, lymphocytic type + malignant lymphoma + squamous-cell, dosed 40 weeks, study length 104 weeks): 10.9 mg/kg/day
- TD50 (site: all sites + forestomach + Harderian gland + heart + kidney + liver + lung + preputial gland, lesion: histiocytic sarcoma + malignant lymphoma, mixed type + malignant lymphoma, lymphocytic type + malignant lymphoma + squamous-cell, dosed 52 weeks, study length 104 weeks): 6.12 mg/kg/day
- TD50 (site: all sites + forestomach + heart + lung, lesion: malignant lymphoma, NOS + papilloma, NOS + squamous-cell papilloma + hemangiosarcoma + alveolar/bronchiolar adenoma + alveolar/bro, dosed 60 weeks, study length 60 weeks): 28.8 mg/kg/day
- TD50 (site: all sites, lesion: hemangioma + hemangiosarcoma, dosed 13 weeks, study length 104 weeks): 16.9 mg/kg/day
- TD50 (site: all sites, lesion: hemangioma + hemangiosarcoma, dosed 26 weeks, study length 104 weeks): 17.7 mg/kg/day
- TD50 (site: all sites, lesion: hemangioma + hemangiosarcoma, dosed 40 weeks, study length 104 weeks): 17.3 mg/kg/day
- TD50 (site: all sites, lesion: hemangioma + hemangiosarcoma, dosed 52 weeks, study length 104 weeks): 11.1 mg/kg/day
- TD50 (site: all sites, lesion: hemangioma + hemangiosarcoma, dosed 82 weeks, study length 104 weeks): 38 mg/kg/day
- TD50 (site: all sites, lesion: hemangioma, dosed 13 weeks, study length 104 weeks): 45.8 mg/kg/day
- TD50 (site: all sites, lesion: hemangioma, dosed 40 weeks, study length 104 weeks): 95.2 mg/kg/day
- TD50 (site: all sites, lesion: hemangiosarcoma, dosed 13 weeks, study length 104 weeks): 21.9 mg/kg/day
- TD50 (site: all sites, lesion: hemangiosarcoma, dosed 26 weeks, study length 104 weeks): 17.7 mg/kg/day
- TD50 (site: all sites, lesion: hemangiosarcoma, dosed 40 weeks, study length 104 weeks): 20.8 mg/kg/day
- TD50 (site: all sites, lesion: hemangiosarcoma, dosed 52 weeks, study length 104 weeks): 11.9 mg/kg/day
- TD50 (site: all sites, lesion: hemangiosarcoma, dosed 82 weeks, study length 104 weeks): 45.5 mg/kg/day
- TD50 (site: all sites, lesion: histiocytic sarcoma + malignant lymphoma, histiocytic type + malignant lymphoma, mixed type + malignant lymphoma, lymphocytic, dosed 82 weeks, study length 104 weeks): 63.5 mg/kg/day
- TD50 (site: all sites, lesion: histiocytic sarcoma + malignant lymphoma, mixed type + malignant lymphoma, lymphocytic type + malignant lymphoma, dosed 13 weeks, study length 104 weeks): 26.2 mg/kg/day
- TD50 (site: all sites, lesion: histiocytic sarcoma + malignant lymphoma, mixed type + malignant lymphoma, lymphocytic type + malignant lymphoma, dosed 26 weeks, study length 104 weeks): 28.8 mg/kg/day
- TD50 (site: all sites, lesion: histiocytic sarcoma + malignant lymphoma, mixed type + malignant lymphoma, lymphocytic type + malignant lymphoma, dosed 40 weeks, study length 104 weeks): 57.1 mg/kg/day
- TD50 (site: all sites, lesion: histiocytic sarcoma + malignant lymphoma, mixed type + malignant lymphoma, lymphocytic type + malignant lymphoma, dosed 52 weeks, study length 104 weeks): 27.6 mg/kg/day
- TD50 (site: all sites, lesion: histiocytic sarcoma, dosed 13 weeks, study length 104 weeks): 91.1 mg/kg/day
- TD50 (site: all sites, lesion: histiocytic sarcoma, dosed 26 weeks, study length 104 weeks): 396 mg/kg/day
- TD50 (site: all sites, lesion: histiocytic sarcoma, dosed 40 weeks, study length 104 weeks): 128 mg/kg/day
- TD50 (site: all sites, lesion: histiocytic sarcoma, dosed 52 weeks, study length 104 weeks): 110 mg/kg/day
- TD50 (site: all sites, lesion: histiocytic sarcoma, dosed 82 weeks, study length 104 weeks): 157 mg/kg/day
- TD50 (site: all sites, lesion: malignant lymphoma, NOS, dosed 60 weeks, study length 60 weeks): 105 mg/kg/day
- TD50 (site: all sites, lesion: malignant lymphoma, histiocytic type + malignant lymphoma, mixed type + malignant lymphoma, lymphocytic type + malignant lymph, dosed 82 weeks, study length 104 weeks): 99.8 mg/kg/day
- TD50 (site: all sites, lesion: malignant lymphoma, lymphocytic type, dosed 13 weeks, study length 104 weeks): 66.8 mg/kg/day
- TD50 (site: all sites, lesion: malignant lymphoma, lymphocytic type, dosed 26 weeks, study length 104 weeks): 46 mg/kg/day
- TD50 (site: all sites, lesion: malignant lymphoma, lymphocytic type, dosed 40 weeks, study length 104 weeks): 142 mg/kg/day
- TD50 (site: all sites, lesion: malignant lymphoma, lymphocytic type, dosed 52 weeks, study length 104 weeks): 129 mg/kg/day
- TD50 (site: all sites, lesion: malignant lymphoma, lymphocytic type, dosed 82 weeks, study length 104 weeks): 157 mg/kg/day
- TD50 (site: all sites, lesion: malignant lymphoma, mixed type + malignant lymphoma, lymphocytic type + malignant lymphoma, dosed 13 weeks, study length 104 weeks): 34.9 mg/kg/day

— PubChem BioAssay AID1745844 (Carcinogenic Potency Database (CPDB), 2022)
